Source: US4371466A, “Mammalian collagenase inhibitors” (American Home Products Corporation, priority 1981, dated 1983)
Non-standard residues stand in square brackets, D forms with d. Residues, ends and D or L forms follow the SMILES beside them. pGlu = O=C1CC[C@@H](C(=O)O)N1

test system: collagenase; test: Collagenase inhibition, acetyl 14C collagen hydrolysis (procedure of Sellers et al.); assay type: biochemical; settings: 2 mM inhibitor, 35° C., 5 to 18 hours, Tris-CaCl2 pH 7.4, versus control devoid of inhibitor
Procedure: The collagen is acetyl ^14 C collagen. The samples are centrifuged and an aliquot removed for assay on a scintillation counter. Because native collagen forms insoluble fibrils under the test conditions, the supernatant liquid contains radioactivity as a measure of hydrolysis. The collagenase activity in the presence of 2 mM inhibitor is compared to activity in a control devoid of inhibitor and the results reported as percent inhibition of collagenase activity. Each of the compounds of this invention have been established as active collagenase inhibitors by the test procedure.
The following examples illustrate the preparation of typical representative compounds of the invention. After each preparative example, the percent inhibition of collagenase activity at the 2 mM level of inhibition in accordance with the previously described standart testing procedure is provided.

Row | Compound | Percent inhibition collagenase
1 | CC[C@H](C)[C@H](NC(=O)[C@@H](N)CS)C(N)=O [Example 1, H-L-Cys-L-Ile-NH2] (H-Cys-Ile-NH2) | 35%
2 | CC[C@H](C)[C@H](NC(=O)[C@H](CS)NC(=O)[C@@H]1CCC(=O)N1)C(N)=O [Example 2, L-pGlu-L-Cys-L-Ile-NH2] ([pGlu]-Cys-Ile-NH2) | 75%
3 | Ac-PQGIAG-NH2 [Example 3, CH3 CO-Pro-Gln-Gly-Ile-Ala-Gly-NH2] | 35%
